Results from PubChem BioAssay AID2060884 (Molecular Pharmacology Branch, DTP, NCI, 2025).

Tested on: NCI-H929 complex spheroids, viability % test/control
Test: Anticancer human tumor NCI-H929 cell line growth inhibition [RAS];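 note: compound exposure lasted seven days before viability was read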;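 for viability, T/C: 100% = DMSO vehicle control viability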
Settings: for IC50: curve of first compound; for viability, T/C: stronger effect = lower value
Method in brief: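 Tumour cells grown as complex spheroids with HUVEC endothelial cells and mesenchymal stem cells, treated with RAS pathway inhibitor combinations. Each agent spans half-log steps from near clinical Cmax, or 10 microM where Cmax is unknown.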

[1] = second compound 0.0316 µM, first compound 0.0316 µM
[2] = second compound 0.0316 µM, first compound 0.1 µM
[3] = second compound 0.1 µM, first compound 0.0316 µM
[4] = second compound 0.1 µM, first compound 0.1 µM
[5] = second compound 0.316 µM, first compound 0.0316 µM
[6] = second compound 0.316 µM, first compound 0.1 µM
[7] = second compound 1 µM, first compound 0.0316 µM
[8] = second compound 1 µM, first compound 0.1 µM

Compound `CC(C)n1nc(-c2ccc3oc(N)nc3c2)c2c(N)ncnc21` + C#Cc1c(F)ccc2cc(O)cc(-c3ncc4c(N5CC6CCC(C5)N6)nc(OCC56CCCN5CC(F)C6)nc4c3F)c12 has an IC50 (second compound 0.0316 µM) of 61.6 nM, an IC50 (second compound 0.1 µM) of 61.7 nM and an IC50 (second compound 0.316 µM) of 61.5 nM. For the same compound, the IC50 (second compound 1 µM) was 60.2 nM, the IC50 (second compound 3.16 µM) was 60.1 nM and the IC50 (second compound 10 µM) was 44.6 nM. For the same compound, the viability, T/C (second compound 0.0316 µM, first compound 0.000316 µM) was 96.7%, the viability, T/C (second compound 0.0316 µM, first compound 0.001 µM) was 97.5% and the viability, T/C (second compound 0.0316 µM, first compound 0.00316 µM) was 103%. It also gave a viability, T/C (second compound 0.0316 µM, first compound 0.01 µM) of 112%, a viability, T/C [1] of 119% and a viability, T/C [2] of 9.44%. The viability, T/C (second compound 0.1 µM, first compound 0.000316 µM) was 96%, the viability, T/C (second compound 0.1 µM, first compound 0.001 µM) was 101% and the viability, T/C (second compound 0.1 µM, first compound 0.00316 µM) was 105%. For the same compound, the viability, T/C (second compound 0.1 µM, first compound 0.01 µM) was 115%, the viability, T/C [3] was 118% and the viability, T/C [4] was 8.74%. The viability, T/C (second compound 0.316 µM, first compound 0.000316 µM) was 96.7%, the viability, T/C (second compound 0.316 µM, first compound 0.001 µM) was 108% and the viability, T/C (second compound 0.316 µM, first compound 0.00316 µM) was 104%. It also gave a viability, T/C (second compound 0.316 µM, first compound 0.01 µM) of 113%, a viability, T/C [5] of 117% and a viability, T/C [6] of 7.88%. The viability, T/C (second compound 1 µM, first compound 0.000316 µM) was 95%, the viability, T/C (second compound 1 µM, first compound 0.001 µM) was 99.2% and the viability, T/C (second compound 1 µM, first compound 0.00316 µM) was 109%. The viability, T/C (second compound 1 µM, first compound 0.01 µM) was 112%, the viability, T/C [7] was 117% and the viability, T/C [8] was 5.23%. It also gave a viability, T/C (second compound 3.16 µM, first compound 0.000316 µM) of 99.5%, a viability, T/C (second compound 3.16 µM, first compound 0.001 µM) of 101% and a viability, T/C (second compound 3.16 µM, first compound 0.00316 µM) of 107%. It also gave a viability, T/C (second compound 3.16 µM, first compound 0.01 µM) of 111%, a viability, T/C (second compound 3.16 µM, first compound 0.0316 µM) of 112% and a viability, T/C (second compound 3.16 µM, first compound 0.1 µM) of 5.57%. For the same compound, the viability, T/C (second compound 10 µM, first compound 0.000316 µM) was 101%, the viability, T/C (second compound 10 µM, first compound 0.001 µM) was 97.2% and the viability, T/C (second compound 10 µM, first compound 0.00316 µM) was 100%. For the same compound, the viability, T/C (second compound 10 µM, first compound 0.01 µM) was 96.6%, the viability, T/C (second compound 10 µM, first compound 0.0316 µM) was 69.5% and the viability, T/C (second compound 10 µM, first compound 0.1 µM) was 4.27%.

With `NC1c2ccccc2OC12CCN(c1cnc3c(N4CCCc5ncccc54)n[nH]c3n1)CC2` (centres undefined) + C=CC(=O)N1CCN(c2nc(OCC3CCCN3C)nc3c(F)c(-c4nc(N)cc(C)c4C(F)(F)F)c(Cl)cc23)C(C)C1 the IC50 (second compound 0.00316 µM) was > 10000 nM, the IC50 (second compound 0.01 µM) was > 10000 nM and the IC50 (second compound 0.0316 µM) was > 10000 nM. For the same compound, the IC50 (second compound 0.1 µM) was > 10000 nM, the IC50 (second compound 0.316 µM) was > 10000 nM and the IC50 (second compound 1 µM) was > 10000 nM. The viability, T/C (second compound 0.00316 µM, first compound 0.0316 µM) was 98.8%, the viability, T/C (second compound 0.00316 µM, first compound 0.1 µM) was 94.8% and the viability, T/C (second compound 0.00316 µM, first compound 0.316 µM) was 99.3%. The viability, T/C (second compound 0.00316 µM, first compound 1 µM) was 98.9%, the viability, T/C (second compound 0.00316 µM, first compound 3.16 µM) was 101% and the viability, T/C (second compound 0.00316 µM, first compound 10 µM) was 66.2%. The viability, T/C (second compound 0.01 µM, first compound 0.0316 µM) was 96.2%, the viability, T/C (second compound 0.01 µM, first compound 0.1 µM) was 90.6% and the viability, T/C (second compound 0.01 µM, first compound 0.316 µM) was 96%. For the same compound, the viability, T/C (second compound 0.01 µM, first compound 1 µM) was 103%, the viability, T/C (second compound 0.01 µM, first compound 3.16 µM) was 99% and the viability, T/C (second compound 0.01 µM, first compound 10 µM) was 66.8%. For the same compound, the viability, T/C [1] was 96.9%, the viability, T/C [2] was 99.7% and the viability, T/C (second compound 0.0316 µM, first compound 0.316 µM) was 101%. The viability, T/C (second compound 0.0316 µM, first compound 1 µM) was 99.8%, the viability, T/C (second compound 0.0316 µM, first compound 3.16 µM) was 96.6% and the viability, T/C (second compound 0.0316 µM, first compound 10 µM) was 63.5%. It also gave a viability, T/C [3] of 92.4%, a viability, T/C [4] of 99% and a viability, T/C (second compound 0.1 µM, first compound 0.316 µM) of 102%. It also gave a viability, T/C (second compound 0.1 µM, first compound 1 µM) of 97.4%, a viability, T/C (second compound 0.1 µM, first compound 3.16 µM) of 97.5% and a viability, T/C (second compound 0.1 µM, first compound 10 µM) of 69.3%. The viability, T/C [5] was 101%, the viability, T/C [6] was 103% and the viability, T/C (second compound 0.316 µM, first compound 0.316 µM) was 105%. The viability, T/C (second compound 0.316 µM, first compound 1 µM) was 103%, the viability, T/C (second compound 0.316 µM, first compound 3.16 µM) was 102% and the viability, T/C (second compound 0.316 µM, first compound 10 µM) was 71.7%. The viability, T/C [7] was 104%, the viability, T/C [8] was 107% and the viability, T/C (second compound 1 µM, first compound 0.316 µM) was 103%. The viability, T/C (second compound 1 µM, first compound 1 µM) was 102%, the viability, T/C (second compound 1 µM, first compound 3.16 µM) was 105% and the viability, T/C (second compound 1 µM, first compound 10 µM) was 68.9%.
